According to patent US5571785A, “Biologically active compounds” (Farmitalia Carlo Erba S.r.l, priority 1993, dated 1996):
Structures can show the parent of a compound that is named as a salt.

Legend:
[1] = system: M5076 murine reticulosarcoma; assay: Antitumour activity (and toxic deaths) against M5076 murine reticulosarcoma transplanted s.c. in mice; assay type: in vivo, mouse (C75 B1/6 mice); conditions: for A.U.C. % inhib / T.C. % (median survival time treated/control × 100) / TOX (number of toxic deaths/total number of mice) / TDG (Tumor Growth Delay) (1 g) / LTS (Long Terms Survivors) / Tox (number of toxic deaths/total number of mice) / Tumor free (mice tumor free at the end of the experiments): days 5, 9, 15; for TDG (Tumor Growth Delay) (1 g): time to reach 1 g tumor weight
Protocol: Antitumour activity of compound A1 on M5076.
The antitumour activity of A1, described in Example 13, was tested as follows:
All drug solutions were prepared immediately before use. Treatment was administered i.v. in a volume of 10 ml/Kg body weight at days 5,9 and 15.
Anthracyclines were dissolved in sterile water and the concentration was checked spectrophotometrically.
Lyophylized polymers were dissolved in water to give a starting solution of 25 mg anthracycline equivalent/ml according to the reported concentration,further dilutions were performed in water.
M5076 murine reticulosarcoma was obtained by serial i.m. passage and transplanted (5×10^5 cells/mouse) s.c. in C75 B1/6 mice to evaluate the activity on primary tumor.
Tumor growth was assessed by. caliper measurement, and the tumor weight estimated according to Geran etal., see Cancer Chemother. Rep. 3, 1 (1972).
The antitumor activity was determined in time (days) to reach one gramm tumor weight and is reported as tumor growth delay (TGD).
The median increase in survival time (T/C%) was calculated using the following formula: [formula]
Toxicity was evaluated on the basis of body weight reduction and gross finding main of spleen and liver reduction.
Neurotoxicity is determined as number of mice with lack of motor function. […]
The antitumor activity was tested with the same treatment schedule for 4'-epidoxorubicin.HCl and compound A4.

[2] = Single-dose i.v. toxicity in healthy mice (LD10, LD50, therapeutic index); assay type: in vivo, mouse; conditions: mouse, in vivo, iv; single dose i.v., healthy C57 B1/F mice, Probit Analysis after 3-week recovery
Protocol: (§1) Toxicity was evaluated in healthy C57B1F mice, treatment i.v., with single doses of 4'-epidoxorubicin.HCl (13.2-16.15-19-20.6-25.2 and 33.2 mg/kg) and compound A4 (50-63-79-100-120-140 mg/kg)
(§2) For the determination of LD10 and LD= in healthy C57 B1F mice the Probit Analysis' after 3-week recovery was used.
(§3) The therapeutic index was calculated using the following formula: [formula]
(§4) Dose effective 50 is the dose causing 50% of tumor growth reduction.

healthy C57B1F mice = assay: as above; assay type: in vivo, mouse; conditions: for LD10: Probit Analysis after 3-week recovery
Protocol: as §1, §2, §3, §4

[3] = single dose i.v., healthy C57 B1/F mice
[4] = Table 1, 30.0 mg/kg (anthracycline equivalent) i.v.
[5] = Table 1, 40.0 mg/kg (anthracycline equivalent) i.v.
[6] = Table 1, 50.0 mg/kg (anthracycline equivalent) i.v.
[7] = Table 2, 4.0 mg/kg (anthracycline equivalent) i.v.
[8] = Table 2, 5.0 mg/kg (anthracycline equivalent) i.v.
[9] = Table 2, 6.0 mg/kg (anthracycline equivalent) i.v.

In the case of COc1cccc2c1C(=O)c1c(O)c3c(c(O)c1C2=O)C[C@@](O)(C(=O)CO)C[C@@H]3O[C@H]1C[C@H](N)[C@@H](O)[C@H](C)O1 [4'-epidoxorubicin.HCl, reference compound], the A.U.C. % inhib ([1]; Table 3, 5 mg/kg) was 51%, the “T.C. % (median survival time treated/control × 100)” value ([1]; Table 3, 5 mg/kg) was 105% and the “TOX (number of toxic deaths/total number of mice)” value ([1]; Table 3, 5 mg/kg) was 0/9. For the same compound, the “TDG (Tumor Growth Delay) (1 g)” value ([1]; Table 3, 5 mg/kg) was 22 days, the A.U.C. % inhib ([1]; Table 3, 7.5 mg/kg) was 90% and the “T.C. % (median survival time treated/control × 100)” value ([1]; Table 3, 7.5 mg/kg) was 124%. For the same compound, the “TOX (number of toxic deaths/total number of mice)” value ([1]; Table 3, 7.5 mg/kg) was 0/9, the “TDG (Tumor Growth Delay) (1 g)” value ([1]; Table 3, 7.5 mg/kg) was 34 days and the A.U.C. % inhib ([1]; Table 3, 10 mg/kg) was 99%. For the same compound, the “T.C. % (median survival time treated/control × 100)” value ([1]; Table 3, 10 mg/kg) was 125%, the “TOX (number of toxic deaths/total number of mice)” value ([1]; Table 3, 10 mg/kg) was 0/9 and the “TDG (Tumor Growth Delay) (1 g)” value ([1]; Table 3, 10 mg/kg) was 40 days. It also gave an LD50 at 504 h [2] of 21.4 mg/kg and an LD10 (healthy C57B1F mice; [3]) of 16.4 mg/kg.
For “Copolymer of 3-methacryloylamino-2hydroxypropane, 3'-N-(methacryloylgly-L-phenlalanyl-L-leucylqlycyl)doxorubicin and N-methacryloylqlycine [A1]”, the A.U.C. % inhib [1, 4] was 100%, the “LTS (Long Terms Survivors)” value [1, 4] was 4/10 and the “T.C. % (median survival time treated/control × 100)” value [1, 4] was 378%. The “Tox (number of toxic deaths/total number of mice)” value [1, 4] was 0/10, the “Tumor free (mice tumor free at the end of the experiments)” value (“Tumor free” below) [1, 4] was 3/10 and the “TDG (Tumor Growth Delay) (1 g)” value [1, 4] was 80 days. For the same compound, the A.U.C. % inhib [1, 5] was 100%, the “LTS (Long Terms Survivors)” value [1, 5] was 6/10 and the “T.C. % (median survival time treated/control × 100)” value [1, 5] was greater than 369%. For the same compound, the “Tox (number of toxic deaths/total number of mice)” value [1, 5] was 0/10, the “Tumor free” value [1, 5] was 5/10 and the A.U.C. % inhib [1, 6] was 100%. The “LTS (Long Terms Survivors)” value [1, 6] was 7/10, the “T.C. % (median survival time treated/control × 100)” value [1, 6] was greater than 369% and the “Tumor free” value [1, 6] was 7/10. For the same compound, the “Tox (number of toxic deaths/total number of mice)” value ([1]; Table 1, 50.0 mg/kg (anthracycline equivalent) i.v., footnote *Neurotoxicity) was 2/10.
In the case of CC(=O)[C@]1(O)Cc2c(O)c3c(c(O)c2[C@@H](O[C@H]2C[C@H](N)[C@H](O)[C@H](C)O2)C1)C(=O)c1ccccc1C3=O [4-demethoxydaunorubicin, reference compound], the A.U.C. % inhib ([1]; Table 2, 1.0 mg/kg i.v.) was 47%, the “LTS (Long Terms Survivors)” value ([1]; Table 2, 1.0 mg/kg i.v.) was 0/9 and the “T.C. % (median survival time treated/control × 100)” value ([1]; Table 2, 1.0 mg/kg i.v.) was 142%. The “Tox (number of toxic deaths/total number of mice)” value ([1]; Table 2, 1.0 mg/kg i.v.) was 0/9, the “Tumor free” value ([1]; Table 2, 1.0 mg/kg i.v.) was 0/9 and the “TDG (Tumor Growth Delay) (1 g)” value ([1]; Table 2, 1.0 mg/kg i.v.) was 19 days. The A.U.C. % inhib ([1]; Table 2, 1.5 mg/kg i.v.) was 80%, the “LTS (Long Terms Survivors)” value ([1]; Table 2, 1.5 mg/kg i.v.) was 0/9 and the “T.C. % (median survival time treated/control × 100)” value ([1]; Table 2, 1.5 mg/kg i.v.) was 160%. For the same compound, the “Tox (number of toxic deaths/total number of mice)” value ([1]; Table 2, 1.5 mg/kg i.v.) was 0/9, the “Tumor free” value ([1]; Table 2, 1.5 mg/kg i.v.) was 0/9 and the “TDG (Tumor Growth Delay) (1 g)” value ([1]; Table 2, 1.5 mg/kg i.v.) was 28 days.
With “Copolymer of 3-methacryloylamino-2-hyvdroxypropane, 4-demethoxy, 3'-N-(methacrylgylcyl-L-phenylalanyl-L-leucyl glycyl)daunorubicin and N-methacryloylglycine [A3]” the A.U.C. % inhib [1, 7] was 100%, the “LTS (Long Terms Survivors)” value [1, 7] was 0/10 and the “T.C. % (median survival time treated/control × 100)” value [1, 7] was 198%. The “Tox (number of toxic deaths/total number of mice)” value [1, 7] was 0/10, the “Tumor free” value [1, 7] was 0/10 and the “TDG (Tumor Growth Delay) (1 g)” value [1, 7] was 49 days. The A.U.C. % inhib [1, 8] was 100%, the “LTS (Long Terms Survivors)” value [1, 8] was 0/10 and the “T.C. % (median survival time treated/control × 100)” value [1, 8] was 205%. For the same compound, the “Tox (number of toxic deaths/total number of mice)” value [1, 8] was 0/10, the “Tumor free” value [1, 8] was 0/10 and the “TDG (Tumor Growth Delay) (1 g)” value [1, 8] was 50 days. For the same compound, the A.U.C. % inhib [1, 9] was 100%, the “LTS (Long Terms Survivors)” value [1, 9] was 0/9 and the “T.C. % (median survival time treated/control × 100)” value [1, 9] was 212%. For the same compound, the “Tox (number of toxic deaths/total number of mice)” value [1, 9] was 0/9, the “Tumor free” value [1, 9] was 0/9 and the “TDG (Tumor Growth Delay) (1 g)” value [1, 9] was 55 days.
For “Copolymer of 3-methacryloylamino-2-hydroxypropane, 4'-epi-3'-N-(methacryloylglycyl-L-phenylalanyl-L-leuculglycyl)doxorubicin and 1-N-(methacryloylgylcyl)-2-hydrocypropane [A4]”, the A.U.C. % inhib ([1]; Table 3, 10 mg/kg) was 100%, the “T.C. % (median survival time treated/control × 100)” value ([1]; Table 3, 10 mg/kg) was 190% and the “TOX (number of toxic deaths/total number of mice)” value ([1]; Table 3, 10 mg/kg) was 0/9. The “TDG (Tumor Growth Delay) (1 g)” value ([1]; Table 3, 10 mg/kg) was 62 days, the A.U.C. % inhib ([1]; Table 3, 20 mg/kg) was 100% and the “T.C. % (median survival time treated/control × 100)” value ([1]; Table 3, 20 mg/kg) was 219%. The “TOX (number of toxic deaths/total number of mice)” value ([1]; Table 3, 20 mg/kg) was 0/9, the “TDG (Tumor Growth Delay) (1 g)” value ([1]; Table 3, 20 mg/kg) was 62 days and the A.U.C. % inhib ([1]; Table 3, 30 mg/kg) was 100%. The “T.C. % (median survival time treated/control × 100)” value ([1]; Table 3, 30 mg/kg) was 229%, the “TOX (number of toxic deaths/total number of mice)” value ([1]; Table 3, 30 mg/kg) was 0/9 and the “TDG (Tumor Growth Delay) (1 g)” value ([1]; Table 3, 30 mg/kg) was 71 days. For the same compound, the “Activity against early M5076 murine reticulosarcoma compared with free drug” value ([1]; versus 4'-epidoxorubicin.HCl, same treatment schedule) was “more active than free drug at all tested doses”, the therapeutic index (healthy C57B1F mice; calculated by formula using dose effective 50 (dose causing 50% of tumor growth reduction)) was 40 and the toxicity (healthy C57B1F mice; compared with 4'-epidoxorubicin.HCl) was “low toxicity”. The LD10 (healthy C57B1F mice; [3]) was 128.0 mg/kg and the “LD50 (extrapolated value)” value (healthy C57B1F mice; single dose i.v., healthy C57 B1/F mice, Probit Analysis, extrapolated value, 30240 min) was 389 mg/kg.
With COc1cccc2c1C(=O)c1c(O)c3c(c(O)c1C2=O)C[C@@](O)(C(=O)CO)C[C@@H]3O[C@H]1C[C@H](N)[C@H](O)[C@H](C)O1 [doxorubicin, reference compound] the A.U.C. % inhib ([1]; Table 1, 7.5 mg/kg i.v.) was 90%, the “LTS (Long Terms Survivors)” value ([1]; Table 1, 7.5 mg/kg i.v.) was 0/26 and the “Tox (number of toxic deaths/total number of mice)” value ([1]; Table 1, 7.5 mg/kg i.v.) was 0/26. For the same compound, the “Tumor free” value ([1]; Table 1, 7.5 mg/kg i.v.) was 0/26, the “TDG (Tumor Growth Delay) (1 g)” value ([1]; Table 1, 7.5 mg/kg i.v.) was 35 days and the A.U.C. % inhib ([1]; Table 1, 10.0 mg/kg i.v.) was 100%. The “LTS (Long Terms Survivors)” value ([1]; Table 1, 10.0 mg/kg i.v.) was 0/26, the “Tox (number of toxic deaths/total number of mice)” value ([1]; Table 1, 10.0 mg/kg i.v.) was 3/26 and the “Tumor free” value ([1]; Table 1, 10.0 mg/kg i.v.) was 0/26. The “TDG (Tumor Growth Delay) (1 g)” value ([1]; Table 1, 10.0 mg/kg i.v.) was 39 days.
